# Assay results taken from paper PMC5218480 (PLoS ONE, 2017).
# System: MV-4-11 cells
# Test: Gene expression microarray analysis (Affymetrix PrimeView) and GSEA
# Type: cell-based, human
# Set-up: RFU PODN (11730768_x_at) / Fold change /veh PODN (11730768_x_at) / RFU LINC00158 (11744669_a_at) / Fold change /veh LINC00158 (11744669_a_at) / RFU DUSP10 (11751237_a_at) / Fold change /veh DUSP10 (11751237_a_at) / RFU ID3 (11757404_x_at) / Fold change /veh ID3 (11757404_x_at) / RFU PLEKHG5 (11737974_s_at) / Fold change /veh PLEKHG5 (11737974_s_at) / RFU LRRC4B (11730491_at) / Fold change /veh LRRC4B (11730491_at) / RFU GIMAP4 (11747438_a_at) / Fold change /veh GIMAP4 (11747438_a_at) / RFU KRT8 (11758183_x_at) / Fold change /veh KRT8 (11758183_x_at) / RFU CNN1 (11734310_a_at) / Fold change /veh CNN1 (11734310_a_at) / RFU VPS37D (11726825_at) / Fold change /veh VPS37D (11726825_at) / RFU C10orf10 (11716522_x_at) / Fold change /veh C10orf10 (11716522_x_at) / RFU KIR2DL2 /// KIR2DL4 /// KIR2DL5A /// KIR2DL5B /// KIR2DS1 /// KIR2DS2 /// KIR2DS3 /// KIR2DS4 /// KIR3DL3 /// KIR3DL3 /// KIR3DS1 (11738374_at) / Fold change /veh KIR2DL2 /// KIR2DL4 /// KIR2DL5A /// KIR2DL5B /// KIR2DS1 /// KIR2DS2 /// KIR2DS3 /// KIR2DS4 /// KIR3DL3 /// KIR3DL3 /// KIR3DS1 (11738374_at) / RFU C1QL1 (11718748_at) / Fold change /veh C1QL1 (11718748_at) / RFU TMPRSS4 (11747572_a_at) / Fold change /veh TMPRSS4 (11747572_a_at) / RFU HAMP (11756126_x_at) / Fold change /veh HAMP (11756126_x_at) / RFU RNFT2 (11725882_a_at) / Fold change /veh RNFT2 (11725882_a_at) / RFU NR4A2 (11747474_a_at) / Fold change /veh NR4A2 (11747474_a_at) / RFU ABCC12 (11746883_a_at) / Fold change /veh ABCC12 (11746883_a_at) / RFU TMEM136 (11760407_x_at) / Fold change /veh TMEM136 (11760407_x_at) / RFU CLDN22 /// WWC2 (11732394_at) / Fold change /veh CLDN22 /// WWC2 (11732394_at) / RFU HLA-DPB1 (11760878_x_at) / Fold change /veh HLA-DPB1 (11760878_x_at) / RFU SPINT1 (11716480_a_at) / Fold change /veh SPINT1 (11716480_a_at) / RFU GAP43 (11754022_s_at) / Fold change /veh GAP43 (11754022_s_at) / RFU A4GNT (11735810_at) / Fold change /veh A4GNT (11735810_at) / RFU PRB3 (11715151_x_at) / Fold change /veh PRB3 (11715151_x_at) / RFU TUBB4B (11761932_at) / Fold change /veh TUBB4B (11761932_at) / RFU CAPN14 (11732068_a_at) / Fold change /veh CAPN14 (11732068_a_at) / RFU TMCC2 (11721928_a_at) / Fold change /veh TMCC2 (11721928_a_at) / RFU IRGQ (11745062_a_at) / Fold change /veh IRGQ (11745062_a_at) / RFU FAM174B (11720279_a_at) / Fold change /veh FAM174B (11720279_a_at) / RFU TMPRSS4 (11748680_a_at) / Fold change /veh TMPRSS4 (11748680_a_at) / RFU FAM212B (11763350_a_at) / Fold change /veh FAM212B (11763350_a_at) / RFU PLEKHG5 (11743358_a_at) / Fold change /veh PLEKHG5 (11743358_a_at) / RFU ZSCAN30 (11745921_a_at) / Fold change /veh ZSCAN30 (11745921_a_at) / RFU CMKLR1 (11741424_a_at) / Fold change /veh CMKLR1 (11741424_a_at) / RFU LOC101060620 /// MAPK8IP1 (11723275_at) / Fold change /veh LOC101060620 /// MAPK8IP1 (11723275_at) / RFU SPTSSB (11747773_x_at) / Fold change /veh SPTSSB (11747773_x_at) / RFU PRSS12 (11739890_at) / Fold change /veh PRSS12 (11739890_at) / RFU BIN1 (11741810_x_at) / Fold change /veh BIN1 (11741810_x_at) / RFU WNT11 (11732464_a_at) / Fold change /veh WNT11 (11732464_a_at) / RFU C10orf10 (11716521_a_at) / Fold change /veh C10orf10 (11716521_a_at) / RFU C5orf56 (11738089_at) / Fold change /veh C5orf56 (11738089_at) / RFU CYB561 (11721691_x_at) / Fold change /veh CYB561 (11721691_x_at) / RFU ANKRD19P (11752326_a_at) / Fold change /veh ANKRD19P (11752326_a_at) / RFU OR2T12 /// OR2T33 /// OR2T8 (11738714_s_at) / Fold change /veh OR2T12 /// OR2T33 /// OR2T8 (11738714_s_at) / RFU VCAN (11748164_a_at) / Fold change /veh VCAN (11748164_a_at) / RFU JSRP1 (11732532_at) / Fold change /veh JSRP1 (11732532_at) / RFU KRTAP10-11 (11738290_x_at) / Fold change /veh KRTAP10-11 (11738290_x_at) / RFU MYO3A (11730013_a_at) / Fold change /veh MYO3A (11730013_a_at) / RFU EBF3 (11725865_a_at) / Fold change /veh EBF3 (11725865_a_at) / RFU CAMK2N1 (11719241_x_at) / Fold change /veh CAMK2N1 (11719241_x_at) / RFU C5orf56 (11738088_a_at) / Fold change /veh C5orf56 (11738088_a_at) / RFU OLFML3 (11715873_a_at) / Fold change /veh OLFML3 (11715873_a_at) / RFU LOC100653217 /// NTM (11731650_a_at) / Fold change /veh LOC100653217 /// NTM (11731650_a_at) / RFU MAPK11 (11762145_a_at) / Fold change /veh MAPK11 (11762145_a_at) / RFU FIZ1 (11724087_x_at) / Fold change /veh FIZ1 (11724087_x_at) / RFU OASL (11726364_x_at) / Fold change /veh OASL (11726364_x_at) / RFU SOX15 (11748057_x_at) / Fold change /veh SOX15 (11748057_x_at) / RFU CD79A (11719716_a_at) / Fold change /veh CD79A (11719716_a_at) / RFU HIST1H1D (11736915_at) / Fold change /veh HIST1H1D (11736915_at) / RFU CASKIN2 (11723855_a_at) / Fold change /veh CASKIN2 (11723855_a_at) / RFU LOC730098 (11760151_x_at) / Fold change /veh LOC730098 (11760151_x_at) / RFU OR4N2 (11742367_at) / Fold change /veh OR4N2 (11742367_at) / RFU PRRT2 (11749266_a_at) / Fold change /veh PRRT2 (11749266_a_at) / RFU SNX32 (11753110_a_at) / Fold change /veh SNX32 (11753110_a_at) / RFU CDHR5 (11726645_a_at) / Fold change /veh CDHR5 (11726645_a_at) / RFU RCAN1 (11760418_a_at) / Fold change /veh RCAN1 (11760418_a_at) / RFU FAM167A (11723789_a_at) / Fold change /veh FAM167A (11723789_a_at) / RFU FAM26E (11764081_at) / Fold change /veh FAM26E (11764081_at) / RFU ISYNA1 (11749810_s_at) / Fold change /veh ISYNA1 (11749810_s_at) / RFU ACY1 (11761880_at) / Fold change /veh ACY1 (11761880_at) / RFU 11764098_at / Fold change /veh 11764098_at / RFU SAMD14 (11745864_x_at) / Fold change /veh SAMD14 (11745864_x_at) / RFU NPB (11741838_a_at) / Fold change /veh NPB (11741838_a_at) / RFU TMPRSS6 (11731388_a_at) / Fold change /veh TMPRSS6 (11731388_a_at) / RFU KRTAP10-2 (11738614_at) / Fold change /veh KRTAP10-2 (11738614_at) / RFU ARHGAP8 /// PRR5-ARHGAP8 (11727945_x_at) / Fold change /veh ARHGAP8 /// PRR5-ARHGAP8 (11727945_x_at) / RFU KRTAP5-7 /// NADSYN1 (11734609_at) / Fold change /veh KRTAP5-7 /// NADSYN1 (11734609_at) / RFU RASL12 (11751679_a_at) / Fold change /veh RASL12 (11751679_a_at) / RFU CDKN2B (11736163_a_at) / Fold change /veh CDKN2B (11736163_a_at) / RFU PRF1 (11729649_at) / Fold change /veh PRF1 (11729649_at) / RFU, ZNF638 /// ZNF638-IT1 / Fold change vs veh, ZNF638 /// ZNF638-IT1 / RFU, PANK3 / Fold change vs veh, PANK3 / RFU, SH3YL1 / Fold change vs veh, SH3YL1 / RFU, ZEB2 / Fold change vs veh, ZEB2 / RFU, NRIP1 / Fold change vs veh, NRIP1 / RFU, PTTG1IP / Fold change vs veh, PTTG1IP / RFU, CAPN2 / Fold change vs veh, CAPN2 / RFU, MED14 / Fold change vs veh, MED14 / RFU, SNORA58 / Fold change vs veh, SNORA58 / RFU, C1orf63 / Fold change vs veh, C1orf63 / RFU, LRRFIP1 / Fold change vs veh, LRRFIP1 / RFU, NDUFAF7 / Fold change vs veh, NDUFAF7 / RFU, SLC12A2 / Fold change vs veh, SLC12A2 / RFU, IBTK / Fold change vs veh, IBTK / RFU, ESF1 / Fold change vs veh, ESF1 / Fold change vs veh, TMEM50B / RFU, TAOK1 / Fold change vs veh, TAOK1 / RFU, ACBD3 / Fold change vs veh, ACBD3 / RFU, TMA16 / Fold change vs veh, TMA16 / RFU, RWDD3 / Fold change vs veh, RWDD3 / RFU, BCAT1 / Fold change vs veh, BCAT1 / RFU, EDEM3 / Fold change vs veh, EDEM3 / RFU, TMEM33 / Fold change vs veh, TMEM33 / RFU, WDR75 / Fold change vs veh, WDR75 / RFU, AHCTF1 / Fold change vs veh, AHCTF1 / RFU, TFRC / Fold change vs veh, TFRC / RFU, ZDHHC17 / Fold change vs veh, ZDHHC17 / RFU, NOM1 / Fold change vs veh, NOM1 / RFU, ARL8B / Fold change vs veh, ARL8B / RFU, ZBTB11 / Fold change vs veh, ZBTB11 / RFU, TAMM41 / Fold change vs veh, TAMM41 / RFU, KIAA1704 /// LOC100996395 / Fold change vs veh, KIAA1704 /// LOC100996395 / RFU, ING1 / Fold change vs veh, ING1 / RFU, TRMT61B / Fold change vs veh, TRMT61B / RFU, FUBP3 / Fold change vs veh, FUBP3 / RFU, TP53 / Fold change vs veh, TP53 / RFU, TNKS2 / Fold change vs veh, TNKS2 / RFU, ZFP14 / Fold change vs veh, ZFP14 / RFU, ACTR2 / Fold change vs veh, ACTR2 / RFU, PPP3R1 / Fold change vs veh, PPP3R1 / RFU, PIK3R1 / Fold change vs veh, PIK3R1 / RFU, HNRNPA1 / Fold change vs veh, HNRNPA1 / RFU, RNF170 / Fold change vs veh, RNF170 / RFU, ZNF28 / Fold change vs veh, ZNF28 / RFU, RNGTT / Fold change vs veh, RNGTT / RFU, OGT / Fold change vs veh, OGT / RFU, BRD1 / Fold change vs veh, BRD1 / RFU, MARS / Fold change vs veh, MARS / RFU, ZNF655 / Fold change vs veh, ZNF655 / RFU, FAHD1 / Fold change vs veh, FAHD1 / RFU, BDP1 / Fold change vs veh, BDP1 / RFU, LRRCC1 / Fold change vs veh, LRRCC1 / RFU, ARID1A / Fold change vs veh, ARID1A / RFU, ZNF146 / Fold change vs veh, ZNF146 / RFU, ZNF330 / Fold change vs veh, ZNF330 / RFU, GPN3 / Fold change vs veh, GPN3 / RFU, C9orf123 / Fold change vs veh, C9orf123 / RFU, N4BP2L2 / Fold change vs veh, N4BP2L2 / RFU, ARFIP1 / Fold change vs veh, ARFIP1 / RFU, FAM179B / Fold change vs veh, FAM179B / RFU, BCL10 / Fold change vs veh, BCL10 / RFU, UHRF1BP1L / Fold change vs veh, UHRF1BP1L / RFU, BET1 / Fold change vs veh, BET1 / RFU, CNOT2 / Fold change vs veh, CNOT2 / RFU, ZNF268 / Fold change vs veh, ZNF268 / Fold change vs veh, ZNF507 / RFU, DGCR2 / Fold change vs veh, DGCR2 / RFU, WDSUB1 / Fold change vs veh, WDSUB1 / Fold change vs veh, HSP90B1 /// MIR3652 / RFU, ADSS / Fold change vs veh, ADSS / RFU, GK / Fold change vs veh, GK / RFU, ZNF148 / Fold change vs veh, ZNF148 / RFU, TAF9 / Fold change vs veh, TAF9 / RFU, SLC1A5 / Fold change vs veh, SLC1A5 / RFU, SLMO2 / Fold change vs veh, SLMO2 / RFU, ABCC4 / Fold change vs veh, ABCC4 / RFU, LOC101060439 /// RAP1B / Fold change vs veh, LOC101060439 /// RAP1B / RFU, RFX7 / Fold change vs veh, RFX7 / RFU, GTPBP10 / Fold change vs veh, GTPBP10 / RFU, CNEP1R1 / Fold change vs veh, CNEP1R1 / RFU, BIVM-ERCC5 /// ERCC5 / Fold change vs veh, BIVM-ERCC5 /// ERCC5 / RFU, ILF3 / Fold change vs veh, ILF3 / RFU 11762660_at / Fold change /veh 11762660_at / RFU VCAN (11757783_s_at) / Fold change /veh VCAN (11757783_s_at) / RFU DDX43 (11728927_at) / Fold change /veh DDX43 (11728927_at) / RFU KRT8 (11758188_x_at) / Fold change /veh KRT8 (11758188_x_at) / RFU NKD1 (11759106_at) / Fold change /veh NKD1 (11759106_at) / RFU SRD5A1 (11742802_a_at) / Fold change /veh SRD5A1 (11742802_a_at) / RFU TPSAB1 /// TPSB2 (11721975_s_at) / Fold change /veh TPSAB1 /// TPSB2 (11721975_s_at) / RFU GSTM3 (11746129_a_at) / Fold change /veh GSTM3 (11746129_a_at) / RFU IL23R (11737362_x_at) / Fold change /veh IL23R (11737362_x_at) / RFU TMEM51 (11727254_a_at) / Fold change /veh TMEM51 (11727254_a_at) / RFU PIWIL2 (11732686_x_at) / Fold change /veh PIWIL2 (11732686_x_at) / RFU ORM1 (11744905_x_at) / Fold change /veh ORM1 (11744905_x_at) / RFU CCDC152 (11743942_at) / Fold change /veh CCDC152 (11743942_at) / RFU ECM1 (11717891_a_at) / Fold change /veh ECM1 (11717891_a_at) / RFU IL23R (11748794_a_at) / Fold change /veh IL23R (11748794_a_at) / RFU TNFAIP8L3 (11732012_x_at) / Fold change /veh TNFAIP8L3 (11732012_x_at) / RFU MBOAT4 (11741988_at) / Fold change /veh MBOAT4 (11741988_at) / RFU 11764193_at / Fold change /veh 11764193_at / RFU TMEM53 (11763286_at) / Fold change /veh TMEM53 (11763286_at) / RFU MAGEB2 (11727129_at) / Fold change /veh MAGEB2 (11727129_at) / RFU TMEM200A (11744735_a_at) / Fold change /veh TMEM200A (11744735_a_at) / RFU CCDC152 (11751479_a_at) / Fold change /veh CCDC152 (11751479_a_at) / RFU FAM211A (11726209_a_at) / Fold change /veh FAM211A (11726209_a_at) / RFU RGS16 (11746705_a_at) / Fold change /veh RGS16 (11746705_a_at) / RFU VCAN (11755009_s_at) / Fold change /veh VCAN (11755009_s_at) / RFU RHOB (11743442_s_at) / Fold change /veh RHOB (11743442_s_at) / RFU RGS16 (11720943_a_at) / Fold change /veh RGS16 (11720943_a_at) / RFU RGS16 (11720944_at) / Fold change /veh RGS16 (11720944_at) / RFU, VPS4B / Fold change vs veh, VPS4B / RFU, CREB1 / Fold change vs veh, CREB1 / RFU, DNAJC13 / Fold change vs veh, DNAJC13 / RFU, GNAQ / Fold change vs veh, GNAQ / RFU, CDK5R1 / Fold change vs veh, CDK5R1 / RFU, ZRANB3 / Fold change vs veh, ZRANB3 / RFU, CUL4A / Fold change vs veh, CUL4A / RFU, CCNY / Fold change vs veh, CCNY / RFU, UFL1 / Fold change vs veh, UFL1 / RFU, COG3 / Fold change vs veh, COG3 / RFU, DIAPH2 / Fold change vs veh, DIAPH2 / RFU, SKA2 / Fold change vs veh, SKA2 / RFU, AFF3 / Fold change vs veh, AFF3 / RFU, LMF1 / Fold change vs veh, LMF1 / RFU, IPO11 / Fold change vs veh, IPO11 / RFU, DFFB / Fold change vs veh, DFFB / RFU, FOXP1 / Fold change vs veh, FOXP1 / RFU, CARD8 / Fold change vs veh, CARD8 / RFU, STRN3 / Fold change vs veh, STRN3 / RFU, ADK / Fold change vs veh, ADK / RFU, RASSF2 / Fold change vs veh, RASSF2 / RFU, WIPF1 / Fold change vs veh, WIPF1 / RFU, LARP1B / Fold change vs veh, LARP1B / RFU, RASA1 / Fold change vs veh, RASA1 / RFU, RB1 / Fold change vs veh, RB1 / RFU, PPFIA1 / Fold change vs veh, PPFIA1 / RFU, MAT2A / Fold change vs veh, MAT2A / RFU, CCT5 / Fold change vs veh, CCT5 / RFU, WDR92 / Fold change vs veh, WDR92 / RFU, CUX1 / Fold change vs veh, CUX1 / RFU, TTC7A / Fold change vs veh, TTC7A / RFU, TMEM135 / Fold change vs veh, TMEM135 / RFU, DEPTOR / Fold change vs veh, DEPTOR / RFU, CPM / Fold change vs veh, CPM / RFU, DNAJB6 / Fold change vs veh, DNAJB6 / RFU, CACNA2D3 / Fold change vs veh, CACNA2D3 / RFU, DTX4 / Fold change vs veh, DTX4 / RFU, TFCP2 / Fold change vs veh, TFCP2 / RFU, GMCL1 /// GMCL1P1 / Fold change vs veh, GMCL1 /// GMCL1P1 / RFU, AEBP2 / Fold change vs veh, AEBP2 / RFU, SNHG1 /// SNORD22 /// SNORD25 /// SNORD26 /// SNORD27 /// SNORD28 /// SNORD29 /// SNORD31 / Fold change vs veh, SNHG1 /// SNORD22 /// SNORD25 /// SNORD26 /// SNORD27 /// SNORD28 /// SNORD29 /// SNORD31 / Fold change (Aza/veh), C12orf56 (ProbeSet 11735607_a_at) / Fold change (ACY-1035/veh), C12orf56 (ProbeSet 11735607_a_at) / Fold change (Aza/veh), FGFR1OP (ProbeSet 11751329_s_at) / Fold change (ACY-1035/veh), FGFR1OP (ProbeSet 11751329_s_at) / Fold change (Aza/veh), VPS36 (ProbeSet 11739960_a_at) / Fold change (ACY-1035/veh), VPS36 (ProbeSet 11739960_a_at) / RFU SYPL1 (11715823_x_at) / Fold change /veh SYPL1 (11715823_x_at) / RFU IGFBP7 (11715501_s_at) / Fold change /veh IGFBP7 (11715501_s_at) / RFU REEP3 (11722064_at) / Fold change /veh REEP3 (11722064_at) / RFU IGLL1 (11728026_x_at) / Fold change /veh IGLL1 (11728026_x_at): dose or concentration left out as unconfirmed
# Conditions: ProbeSet 11745428_a_at; LIST D
smiles,measurement,value
Nc1ccc(-c2cccs2)cc1NC(=O)c1ccc2c(c1)cc(C1CC1)n2CCN1CCOCC1 [ACY-1035],"Fold change vs veh, DFFB",0.87
